The values that follow come from patent US4835162A (priority 1987, dated 1989).

Entries after “also recorded” stand apart in the source; their conditions may differ. Read-outs that look alike come from different tables or passages of the source. Some results are limits rather than exact numbers.

For assay [1], the system named is rats. The settings on record: rat, in vivo.
Assay [2] has as its system rats. Also noted: species or system Sprague-Dawley male rats; Blockade of (nicotine-induced prostration) EC50: unit not given here. To be noted: rat, in vivo.
Assay [3] addresses nicotinic receptors (rat brain membranes). It is filed as binding. The settings on record: read-out: 3H-Nicotine Binding IC50.
Assay [4] shares this target. To be noted: read-out: 3H-MCC Binding IC50.
Assay [5] deals with rats. To be noted: rat, in vivo. This is another data set of the same source.
Assay [6] concerns rats. In words: animal or person. To be noted: Rattus norvegicus, iv, read-out: Antagonistic dose needed to completely block elevation in systolic blood pressure.
Assay [7] concerns the target nicotinic receptors (rat brain membranes). Format: binding. To be noted: for IC50: pH 7, read-out: [3H]-nicotine IC50; for Kd: read-out: Kd value in competition binding.
Assay [8] has the same target. It is filed as binding. To be noted: for IC50: pH 7, read-out: [3H]-MCC IC50.
Assay [9] has as its system rats. To be noted: rat, in vivo. The source holds these as a separate data set.
Assay [10] has as its system rats. In words: animal or person. To be noted: Rattus norvegicus, ip, 7 min, read-out: % Antagonism (seizures).
Assay [11] has as its system nicotinic receptors (rat brain membranes). Format: binding.
Assay [12] deals with rats. The settings on record: rat, in vivo. This is another data set of the same source.

For the compound `CN(C)c1cccnc1` [3-dimethylaminopyridine], in the assay on rats [1], the “agonist or inactive on prostration, in words” value is listed as “agonists”.

With `Nc1c2c(nc3ccccc13)CCCC2` [9-aminotetrahydroacridine, reference compound], the “Blockade of (nicotine-induced prostration) EC50” value in the assay on rats [2] was 200.

`CC(=O)OCCN(C)C` [DMAE acetate]: the IC50 in assay [3] (pH 7.5) and in assay [4] (pH 7.5) was 50000 nM each time. Moreover, the “Prostration EC50” value in the assay on rats [1] was above 1000.

In the case of `CN(C)CCOC(=O)c1ccccc1` [DMAE benzoate, dimethylaminoethyl benzoate], the “Blockade of (nicotine-induced prostration) EC50” value in the assay on rats [2] is recorded as 100. Further, in the assay with rats [5], the “% Antagonism (seizures)” value is recorded as 45% and the Seizures is listed as 5/9. The ED100 with rats [6] is 10 ± 25 mg/kg.

Turning to `CN(C)CCOC(N)=O` [DMAE carbamate], the IC50 in assay [7], in [8], in assay [3] (pH 7.5) and in [4] (pH 7.5) was 10000 nM each time. Moreover, in the assay with rats [1], the “Prostration EC50” value worked out at 400. For the same compound, the “behavioral effect, in words” value with rats [1] is on record as “only a similar effect”.

With `CN(C)CCOC(=O)C1CCCCC1` [DMAE cyclohexylcarboxylate, dimethylaminoethyl cyclohexylcarboxylate], the IC50 in [3] was found to be 2000 nM. Also, the IC50 in assay [4] turned out to be 4000 nM. Further, the “Blockade of (nicotine-induced prostration) EC50” value in the assay on rats [2] is on record as 100. For the same compound, in the assay with rats [5], the “% Antagonism (seizures)” value is reported as 50%; the Seizures is reported as 4/8; the “seizures, in words” value is recorded as “about half of the rats exhibited seizures”.

With `CNC(=O)OCCN(C)C` [DMAE methylcarbamate, dimethylaminoethylmethylcarbamate], the IC50 in [7] was 500 nM; in assay [8], 800 nM; in assay [3] (pH 7.5), 500 nM; in [4] (pH 7.5) it was 800 nM. In addition, the “Prostration EC50” value with rats [1] was found to be 300. Further, in the assay on rats [1], the “behavioral effect, in words” value is “moderate weakness in the hindlimbs and head”.

On to `CN(C)CCOC(=O)c1cccnc1` [DMAE nicotinate], for which the IC50 in assay [3] was 200 nM. For the same compound, the IC50 in assay [4] was found to be 200 nM. In the assay with rats [2], the “Blockade of (nicotine-induced prostration) EC50” value is on record as 50; the “blockade of nicotine-induced prostration / antagonism, in words” value is “next in effectiveness and of comparable activity; also recorded: antagonistic to the nicotine-induced prostration”.

Regarding `CN(C)CCOC(=O)Nc1ccccc1` [DMAE phenylcarbamate], the IC50 in assay [3] and in assay [4] was 100000 nM each time.

As for `CN(C)CCOC(=S)Nc1ccccc1` [DMAE phenylthiocarbamate], the IC50 amounted to 70000 nM in assay [3] and 20000 nM in assay [4].

In the case of `CN(C)CCOC(=O)CCC(=O)OCCN(C)C` [DMAE succinate], the IC50 in [3] (pH 7.5) stood at 50000 nM; in assay [4] (pH 7.5), 60000 nM. Besides, in the assay with rats [1], the “Prostration EC50” value stood at 1000.

Turning to `CNC(=O)OCCCN(C)C` [DMAP methylcarbamate], the figures for the IC50 in assay [3] (pH 7.5) and in assay [4] (pH 7.5) were 200 nM and 50 nM, respectively. In addition, the “Prostration EC50” value with rats [1] was found to be 100.

As for `CCN1CCCC1c1cccnc1` (stereo not drawn) [N'--ethyl nornicotine, reference compound], the “decrease in affinity relative to nicotine” value in [7] turned out to be 3 fold. Besides, the IC50 was 30 nM in assay [7], 100 nM in assay [8], 30 nM in [3] (pH 7.5) and 100 nM in [4] (pH 7.5). Also, in the assay with rats [1], the “Prostration EC50” value was found to be 20.

`CCCN1CCCC1c1cccnc1` (stereo not drawn) [N'--propyl nornicotine, reference compound]: the “decrease in affinity relative to nicotine” value in assay [7] is 200 fold. The IC50 in assay [7] is 600 nM; in [8], 1000 nM; in assay [3] (pH 7.5), 600 nM; in [4] (pH 7.5), 1000 nM. For the same compound, the “Prostration EC50” value in the assay with rats [1] turned out to be 80.

As for `CNC(=O)OC1CCN(Cc2ccccc2)CC1` [N--benzyl-4-piperdyl methylcarbamate], the IC50 in [3] and in [4] was above 100000 nM each time.

In the case of `CN1CCCC(OC(=O)c2ccccc2)C1` (stereo not drawn) [N--methyl-3-piperdyl benzoate], the figures for the IC50 in [3] and in [4] were 30000 nM and 20000 nM, respectively. Further, in the assay with rats [2], the “Blockade of (nicotine-induced prostration) EC50” value was 300.

Consider `COc1ccc(CC2c3cc(OC)c(OC)cc3CCN2C)cc1OC` (stereo not drawn) [N--methyltetrahydro papavarine, reference compound], for which the results for the IC50 in assay [3] and in assay [4] were 70000 nM and 80000 nM, respectively.

On to `C[N+](C)(C)CCOC(=O)C1CCCCC1` [TMAE cyclohexylcarboxylate, choline ester of cyclohexylcarboxylic acid], for which the IC50 in assay [3] came to 80 nM; in assay [4], 50 nM. In addition, the “Blockade of (nicotine-induced prostration) EC50” value in the assay on rats [2] was 10. In addition, the Seizures with rats [5] is given as 1/8. Further, the “blockade of seizure activity” value in the assay on rats [5] amounted to 78%. In addition, in the assay with rats [9], the “% Antagonism (protection against nicotine mortality)” value was 66%. For the same compound, the responders at 25 mg/kg in the assay with rats [10] is 78%.

Turning to `C[N+](C)(C)CCOC(=O)Cc1ccccc1` [TMAE phenylacetate], the IC50 in assay [3] came out at 2000 nM; in assay [4], 300 nM. Besides, in the assay with rats [2], the “Blockade of (nicotine-induced prostration) EC50” value is recorded as 100. In addition, the “blockade of nicotine-induced prostration / antagonism, in words” value in the assay with rats [2] was “next in effectiveness and of comparable activity”.

Regarding `C[N+](C)(C)CCOC(=S)Nc1ccccc1` [TMAE phenylthiocarbamate], the IC50 in [3] amounted to 500 nM. For the same compound, the IC50 in assay [4] turned out to be 500 nM. In the assay with rats [2], the “Blockade of (nicotine-induced prostration) EC50” value was determined as 50; the “blockade of nicotine-induced prostration / antagonism, in words” value was “next in effectiveness and of comparable activity”. Moreover, in the assay on rats [9], the “% Antagonism (protection against nicotine mortality)” value was determined as 63% and the Mortality was 3/10. Also, in the assay with rats [6], the ED100 worked out at 4 ± 0.8 mg/kg.

Consider `C[N+](C)(C)CCOC(=O)CCC(=O)OCC[N+](C)(C)C` [TMAE succinate, succinylcholine], for which the “Prostration EC50” value in the assay with rats [1] came out at 50.

For `[3H]C([3H])([3H])[N+](C)(C)CCOC(=O)NC` [[^3 H]-MCC, [^3 H]-methylcarbamyl choline], in assay [8], the “displaceability of [3H]-MCC binding by muscarinic antagonists” value is “not [^3 H]-MCC binding, is displaceable by low concentrations of muscarinic antagonists; also recorded: not displaceable by muscarinic cholinergic antagonists”. Moreover, the “Bmax of [3H]-MCC binding” value in assay [11] was 4.0×10^-14 moles/mg protein. Besides, the “Scatchard Kd and Bmax with unlabeled (-)-nicotine replacing MCC, in words” value in assay [11] is “comparable Kd and Bmax values”. In addition, in assay [11] (brain membranes, pH 7), the “rate constant for association, [3H]-MCC” value was determined as 300000 M⁻¹ s⁻¹. Also, the “rate constant for dissociation, [3H]-MCC” value in [11] (brain membranes, pH 7) is 0.001 s⁻¹. The Kd in assay [11] (read-out: Kd (Hill binding constant) of [3H]-MCC) came to 0.9 nM; in assay [11] (read-out: Kd from rate constants, [3H]-MCC) it was 3.3 nM; in assay [11] (read-out: Kd, Scatchard analysis of [3H]-MCC binding), 1.1 nM.

Take `CC(=O)OCC[N+](C)(C)C` [acetylcholine]: the “psychotropic action (prostration), in words” value with rats [12] is “inactive”. Also, in the assay on rats [1], the “Prostration EC50” value worked out at 300.

With `CN1[C@@H]2CC[C@H]1C[C@@H](OC(=O)C(CO)c1ccccc1)C2` (stereo partly drawn) [atropine, reference compound], the “blockade of nicotine-induced prostration / antagonism, in words” value in the assay on rats [2] was “inactive”. For the same compound, in the assay on rats [5], the Seizures is given as 6/6. In the assay on rats [9], the “protection against nicotine mortality, in words” value was “ineffective”. The responders at 25 mg/kg with rats [10] came out at 0%.

`C[N+](C)(C)CCOC(N)=O` [carbamylcholine]: the “Prostration EC50” value with rats [1] stood at 100.

As for `O=c1cccc2n1C[C@@H]1CNC[C@H]2C1` [cytisine, reference compound], the IC50 in assay [3] (pH 7.5) amounted to 6 nM; in assay [4] (pH 7.5) it was 0.1 nM. Also, in the assay with rats [1], the “Prostration EC50” value worked out at 2.

As to `C[N+](C)(C)CCCCCC[N+](C)(C)C` [hexamethonium], in assay [7], the IC50 was above 100000 nM and the Kd was above 100000 nM.

As to `CCN(CC)CC(=O)Nc1c(C)cccc1C` [lidocaine, reference compound], in the assay on rats [2], the “blockade of nicotine-induced prostration / antagonism, in words” value was “inactive”.

Turning to `CN1C(CC(O)c2ccccc2)CCCC1CC(O)c1ccccc1` (stereo not drawn) [lobelanidine, reference compound], the values for the IC50 in assay [3] and in assay [4] were 20 nM and 5 nM, respectively. In addition, the “Blockade of (nicotine-induced prostration) EC50” value in the assay with rats [2] is 25.

`CN1[C@@H](CC(=O)c2ccccc2)CCC[C@H]1CC(=O)c1ccccc1` [lobelanine, reference compound]: the IC50 in assay [3] amounted to 10 nM; in assay [4], 5 nM. In addition, in the assay with rats [2], the “Blockade of (nicotine-induced prostration) EC50” value is reported as 25.

Consider `CNC(=O)Oc1ccc2c(c1)[C@]1(C)CCN(C)[C@@H]1N2C` [physostigmin, reference compound], for which the “blockade of nicotine-induced prostration / antagonism, in words” value with rats [2] is “inactive”.

In the case of `CCN(CC)CCOC(=O)c1ccc(N)cc1` [procaine, reference compound], the “blockade of nicotine-induced prostration / antagonism, in words” value with rats [2] was “effectively block nicotine-induced prostration; also recorded: antagonists”.

With `CN(C)C(=O)Oc1cccc([N+](C)(C)C)c1` [prostigmin, reference compound], the “blockade of nicotine-induced prostration / antagonism, in words” value with rats [2] is “inactive”.

As for N--benzylpiperidyl-methylcarbamate, the IC50 in assay [3] and in assay [4] was above 100000 nM throughout.

On to α-bungarotoxin, for which, in assay [7], the IC50 is above 100000 nM and the Kd was above 100000 nM. In assay [8], the IC50 was above 100000 nM.

As usually defined, the IC50 is the midpoint of a concentration-inhibition curve. As usually defined, the Kd is the equilibrium constant for the complex coming apart.
